Values of other authors in patent US20080139514A1, “DIPHOSPHONIC ACID PHARMACEUTICAL COMPOSITIONS” (priority 2006, published 2008).
Like-named read-outs stand apart in the source and are kept apart here.

How the values were obtained:
[1] = stored at room temperature

Solubility in organic solvents (organic solvents)	Solubility in water	Solubility in water (monosodium monohydrate)	Stability on storage [1]	Compound
practically insoluble	freely soluble	–	–	CCCCCN(C)CCC(O)(P(=O)(O)O)P(=O)(O)O [Ibandronic acid, 3-(N-methyl-N-pentyl) amino-1-hydroxypropane-1,1-diphosphonic acid]
–	–	poor	quite stable	CCCCCN(C)CCC(O)(P(=O)(O)O)P(=O)(O)O [ibandronate sodium, ibandronate monosodium monohydrate]
